Test results as given in patent publication US20250127913A1, “BIFUNCTIONAL FOLATE RECEPTOR BINDING COMPOUNDS” (LYCIA THERAPEUTICS, INC., priority 2021, published 2025).

Experiments:
THP-1 cells = assay: Compound mediated uptake of TNFα-pHrodo in THP-1 cells (flow cytometry); assay type: cell-based; settings: THP-1 cells, 24 hrs
Experimental: THP-1 cells, a monocytic leukemia cell line that endogenously express folate receptor beta, were used as a model system to measure example compound stimulated uptake of in-house produced TNFα conjugated to the pH sensitive fluorescent dye pHrodo green (ThermoFisher Scientific #P35369).
THP-1 cells were maintained in RPMI (Gibco #61870143) with 10% v/v FBS (VWR #89510-188) with 2 mM L-alanyl-L-glutamine dipeptide, 100 units/ml penicillin and 100 μg/ml streptomycin (Gibco #15140148). Cells were pelleted, resuspended in folate-free RPMI (Gibco #27016021) and seeded at 50,000 cells per well of a 96 well plate. Example compound was added to each well as a log 2 dilution series ranging from 20 μM to 125 nM final concentration. Cells were incubated for 24 hrs and washed/resuspended in phosphate buffered saline (pH 7.4) with 1% w/v BSA. Uptake was measured using a Novocyte Advanteon Flow Cytometer (Agilent Technologies) with the […] and FITC detection configuration.

folate receptor beta [1] = molecular target: T1, folate receptor beta (Homo sapiens (Human), UniProt P14207); assay: Folate receptor binding assay (fluorescence polarization); settings: 2.5 nM folate receptor beta, 2 nM FR-Cy probe, 2 hr incubation; read-out: FOLR2-FP
T1 sequence (P14207 17-255): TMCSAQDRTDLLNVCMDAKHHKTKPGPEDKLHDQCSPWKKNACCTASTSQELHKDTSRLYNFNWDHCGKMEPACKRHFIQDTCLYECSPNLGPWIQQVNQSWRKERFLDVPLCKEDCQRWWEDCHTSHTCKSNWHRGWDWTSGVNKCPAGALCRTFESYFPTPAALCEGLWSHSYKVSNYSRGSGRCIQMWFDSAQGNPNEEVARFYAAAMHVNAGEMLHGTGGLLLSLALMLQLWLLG
Experimental: Folate receptor binding was measured in black 96-well plates using a fluorescence polarization assay. A fluorescent probe consisting of a folate analog linked to Cy5 (FR-Cy) was custom synthesized.
Test compounds were resuspended in DMSO and 3-fold serial dilutions were made from 300-0.015 μM (100× final concentrations). Binding reactions were conducted in 200 μl final volume in 20 mM Hepes (pH 7.5) 250 mM NaCl 0.0150 Tween-20 1% DMSO with 2.5 nM folate receptor beta (Acro Biosystems) and 2 nM probe. Fluorescence polarization was measured using λex=620 nm, λem=688 nm on an Envision plate reader (Perkin Elmer) after 2 hr incubation time. Dose responses were conducted in duplicate and normalized to the response with DMSO (high) and 1 μM folic acid (low) on each plate. IC50 values were determined by fitting to 4-parameter curves in GraphPad Prism.

TNFα = TNFα (Homo sapiens (Human), UniProt P01375); assay: TNFα binding assay (time-resolved FRET, biotinylated TNFα); settings: 1 nM biotinylated TNFα, 80 nM probe, 16 hr incubation; read-out: TNF-HTRF-biotin
Chain of TNFα (P01375 77-233): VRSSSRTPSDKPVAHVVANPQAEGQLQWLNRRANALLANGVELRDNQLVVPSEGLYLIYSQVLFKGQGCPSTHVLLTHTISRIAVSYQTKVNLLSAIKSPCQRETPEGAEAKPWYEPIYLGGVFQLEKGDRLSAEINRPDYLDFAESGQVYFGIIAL
Experimental: TNFα binding was measured in black 96-well plates using a time-resolved FRET assay using a previously described fluorescence acceptor TNFα probe (Xiao et al J. Med. Chem. 2020). Biotinylated TNFα was purchased from Acro Biosystems. Binding reactions were conducted in 20 mM Hepes (pH 7.5) 10 mM MgCl2 0.015% Tween-20 0.05 mg/ml BSA 2% DMSO with 1 nM TNFα 0.5 nM Streptavidin-Tb and 80 nM probe. Test compounds were resuspended in DMSO and 3-fold serial dilutions were made at 100× final concentrations. Fluorescence was measured using λex=340 nm, λem=490, 520 nm on an SpectraMax M5e plate reader (Molecular Devices) after 16 hr incubation time. Dose responses were conducted in duplicate and normalized to the response with DMSO (high) and 100 nM (R)-3-(1-((3-chloro-7-fluoro-6-(2-(2-hydroxypropan-2-yl)pyrimidin-5-yl)-2-methyl-1,5-naphthyridin-4-yl)amino)ethyl)-4-fluorobenzonitrile (low) on each plate. IC50 values were determined by fitting to 4-parameter curves in GraphPad Prism.

[2] = molecular target: TNFα and streptavidin immobilized FOL2R (Homo sapiens (Human), UniProt P01375+P14207); assay: Ternary complex SPR assay; assay type: binding; settings: 10 nM compound, max response normalized to expected response; for TC 150 nM- tagless TNF Normalized: 150 nM untagged TNF; for TC 300 nM- tagless TNF Normalized: 300 nM untagged TNF
Chain of TNFα and streptavidin immobilized FOL2R (P14207 17-230): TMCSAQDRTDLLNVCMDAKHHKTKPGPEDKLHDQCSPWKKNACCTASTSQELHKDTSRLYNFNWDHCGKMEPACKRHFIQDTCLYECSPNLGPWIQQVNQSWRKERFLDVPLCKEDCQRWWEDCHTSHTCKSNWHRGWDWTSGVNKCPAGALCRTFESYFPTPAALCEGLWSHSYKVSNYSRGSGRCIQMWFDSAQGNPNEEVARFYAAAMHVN
Chain of TNFα and streptavidin immobilized FOL2R (P01375 77-233): as the sequence (P01375 77-233) above
Experimental: Folate receptor-TNFα ternary complex SPR assays were conducted on a Biacore 8K instrument (Cytiva) using biotinylated folate receptor beta (Acro Biosystems). Folate receptor was immobilized at -1800 RU on a streptavidin chip (Cytiva) in 10 mM HEPES pH 7.5, 150 mM NaCl, 0.05% Tween 20. Untagged TNF was preincubated with 10 nM compound for 6 hr in 10 mM HEPES pH 7.5, 150 mM NaCl, 0.05 Tween 20, 2% DMSO at 25° C. Samples were then injected over the folate receptor surface at 30 μl/min with an association time of 110 s and a dissociation time of 600 s. Surfaces were regenerated with 4 M MgCl2 at 30 μl/mm for 30 s. The maximum measured response was normalized by comparison to the maximum expected response for each compound.

folate receptor beta [3] = molecular target: T1, folate receptor beta; assay: Folate receptor SPR assay (biotinylated folate receptor beta on streptavidin chip); assay type: binding
Experimental: Folate receptor SPR binding assays were conducted on a Biacore 8K instrument (Cytiva) using biotinylated folate receptor beta (Acro Biosystems). Briefly, folate receptor was immobilized at -550 RU on a streptavidin chip (Cytiva) in 10 mM HEPES pH 7.5, 150 mM NaCl, 0.05% Tween 20. Multi-cycle kinetic studies were conducted with 8 compound concentrations using 2-fold dilutions in 10 mM HEPES pH 7.5, 150 mM NaCl, 0.05% Tween 20, 2% DMSO at 25° C. A flow rate or 75 μl/mmn with an association time of 120 s and a dissociation time of 600 s were used. Surfaces were regenerated with 4 M MgCl2 at 30 μl/min for 30 s. Data were fit to a 1:1 model to determine the reported binding parameters.

SMILES	IC50 (folate receptor beta [1])	IC50 (TNFα)	TC 150 nM- tagless TNF Normalized [2]	TC 300 nM- tagless TNF Normalized [2]	further results
Cc1nc2cc(F)c(-c3cnc(OCCCCCn4cc(COCCOCCOCCOCCNC(=O)[C@H](CCC(=O)O)NC(=O)c5ccc(NCc6cnc7nc(N)nc(O)c7n6)cc5)nn4)nc3)nc2c(N[C@H](C)c2cc(C#N)ccc2F)c1Cl [Compound 1-21]	–	–	–	–	uptake of labelled TNFα (median fluorescence intensity of pHrodo dye) (THP-1 cells): stimulate uptake of TNFα
Cc1nc2cc(F)c(-c3cnc(N4CCN(C(=O)COCCn5cc(COCCOCCOCCOCCNC(=O)CC[C@H](NC(=O)c6ccc(NCc7cnc8nc(N)nc(O)c8n7)cc6)C(=O)O)nn5)CC4)nc3)nc2c(N[C@H](C)c2cc(C#N)ccc2F)c1Cl [Compound I-45, (S)-18-(4-(((2-amino-4-hydroxypteridin-6-yl)methyl)amino)benzamido)-1-(1-(2-(2-(4-(5-(7-chloro-8-(((R)-1-(5-cyano-2-fluorophenyl)ethyl)amino)-3-fluoro-6-methyl-1,5-naphthyridin-2-yl)pyrimidin-2-yl)piperazin-1-yl)-2-oxoethoxy)ethyl)-1H-1,2,3-triazol-4-yl)-15-oxo-2,5,8,11-tetraoxa-14-azanonadecan-19-oic acid]	4.2 nM	25 nM	16.3%	17.6%	–
Cc1nc2cc(F)c(-c3cnc(N4CCN(C(=O)COCCOCCOCCOCCN5CCN(C(=O)CC[C@H](NC(=O)c6ccc(N(C)Cc7cnc8nc(N)[nH]c(=O)c8n7)cc6)C(=O)O)CC5)CC4)nc3)nc2c(N[C@H](C)c2cc(C#N)ccc2F)c1Cl [Compound I-78, (S)-2-(4-(((2-amino-4-oxo-3,4-dihydropteridin-6-yl)methyl)(methyl)amino)benzamido)-5-(4-(14-(4-(5-(7-chloro-8-(((R)-1-(5-cyano-2-fluorophenyl)ethyl)amino)-3-fluoro-6-methyl-1,5-naphthyridin-2-yl)pyrimidin-2-yl)piperazin-1-yl)-14-oxo-3,6,9,12-tetraoxatetradecyl)piperazin-1-yl)-5-oxopentanoic acid]	9.2 nM	13 nM	–	–	–
Cc1nc2cc(F)c(-c3cnc(N4CCN(C(=O)COCCOCCOCCOCCOCCOCCn5cc(CC[C@H](NC(=O)c6ccc(SCc7ccc8nc(N)nc(O)c8c7)cc6)C(=O)O)nn5)CC4)nc3)nc2c(N[C@H](C)c2cc(C#N)ccc2F)c1Cl [Compound I-79, (S)-2-(4-(((2-amino-4-hydroxyquinazolin-6-yl)methyl)thio)benzamido)-4-(1-(20-(4-(5-(7-chloro-8-(((R)-1-(5-cyano-2-fluorophenyl)ethyl)amino)-3-fluoro-6-methyl-1,5-naphthyridin-2-yl)pyrimidin-2-yl)piperazin-1-yl)-20-oxo-3,6,9,12,15,18-hexaoxaicosyl)-1H-1,2,3-triazol-4-yl)butanoic acid]	3.2 nM	17 nM	–	–	–
C[C@@H]1CN(c2ncc(-c3ccc4c(c3)N(Cc3ccccc3OC(F)F)C(C)(C)C4=O)cn2)CCN1C(=O)COCCOCCOCCOCCOCCOCCn1cc(CC[C@H](NC(=O)c2ccc(NCc3cnc4nc(N)nc(O)c4n3)cc2)C(=O)O)nn1 [Compound I-88, (S)-2-(4-(((2-amino-4-hydroxypteridin-6-yl)methyl)amino)benzamido)-4-(1-(20-((R)-4-(5-(1-(2-(difluoromethoxy)benzyl)-2,2-dimethyl-3-oxoindolin-6-yl)pyrimidin-2-yl)-2-methylpiperazin-1-yl)-20-oxo-3,6,9,12,15,18-hexaoxaicosyl)-1H-1,2,3-triazol-4-yl)butanoic acid]	6.9 nM	60 nM	–	–	–
Cc1nc2cc(F)c(-c3cnc(N4CCN(C(=O)COCCn5cc(COCCOCCOCCN6CCN(C(=O)[C@H](CCC(=O)O)NC(=O)c7ccc(NCc8cnc9nc(N)nc(O)c9n8)cc7)CC6)nn5)CC4)nc3)nc2c(N[C@H](C)c2cc(C#N)ccc2F)c1Cl [Compound I-97]	17 nM	–	18.4%	21.1%	Rmax (folate receptor beta [3]; biotinylated folate receptor beta on streptavidin chip): 17.1 RU; kd (folate receptor beta [3]; multi-cycle kinetics, 25° C., 1:1 model): 0.000798 s⁻¹; Kd (folate receptor beta [3]; multi-cycle kinetics, 25° C., 1:1 model, read-out: FOLR2Biotin - SPR Kd): 0.0914 nM; kon (folate receptor beta [3]; pH 7.5, multi-cycle kinetics, 25° C., 1:1 model, read-out: ka): 8.74e+06 M⁻¹ s⁻¹
